Peptide text beside a SMILES is read from it. * marks the point of attachment. Cbz = O=C(OCc1ccccc1)*; CH2F = FC*
How the values were obtained:
Type in all cases: cell-based
[1] = tested on: HeLa cells expressing Q79 expanded polyglutamine repeats; experiment: Cell death induced by TNF-α/CHX, Fas/CHX or H2O2; conditions: 100 μM, one hour before the inducing agent; cell death 48 hours later
Method: FIG. 5F is a graph of the effects of Congo red, ZVAD, or vehicle (NT) on cell death when the cells are induced to die by receptor mediated pathways (TNF-α/cycloheximide (CHX), Fas/cycloheximide (CHX)), or necrosis (hydrogen peroxide).
HeLa cells expressing Q79 expanded polyglutamine repeats were treated with 100 μM Congo red, or 100 μM ZVAD (a positive control) for one hour prior to the addition of the apoptosis-inducing agent, and cell death was determined 48 hours later. […] Finally we tested whether Congo red can inhibit apoptosis induced by overexpression of caspase-1, -8, or -11.

[2] = tested on: non-transfected HeLa cells; experiment: Total cellular protein degradation; conditions: Congo red 100 μM, ZVAD 100 μM, MG132 10 μM; H3-tyrosine release, 0 to 180 minutes
Method: FIG. 8C is a graph of the effect of effect of Congo red, ZVAD, or the proteosome inhibitor MG132 on total cellular protein degradation in non-transfected HeLa cells.
To rule out the possibility that Congo red may have an effect on protein degradation in general, we tested the effect of Congo red on proteosome degradation. Rates of total cellular protein degradation experiments, from cells seeded in 12 well dishes at 2×10^4, treated with Congo red (100 μM), ZVAD (100 μM), or the proteosome inhibitor MG132 (10 μM) and labeled with 5 μCi/ml of H^3-tyrosine for 1 hour. One hundred microliter culture medium aliquots were collected at 0, 30, 60, 90, 120, and 180 minute time points, and the levels of H^3-tyrosine were determined using an LS6000 scintillation counter (Beckman, Co).

[3] = tested on: HeLa cells transfected with Q79-GFP; experiment: Cellular ATP levels (ATPLite) in Q79 expressing HeLa cells; conditions: Q79-GFP, assayed 48 hours after transfection
Method: We also investigated whether Congo red prevented other cellular events during cell death, including ATP depletion, caspase activation, and protein synthesis inhibition. HeLa cells were transfected with the Q79-GFP construct. Forty-eight hours later, the viability of cells expressing expanded polyglutamine repeats was determined by measuring cellular ATP levels, suing an ATPLite™ kit, according to the directions provided by the manufacturer (Packard, Co.) (FIG. 5A).
To determine the effect of Congo red (100 μM) on polyglutamine-induced cell toxicity. HeLa cells were transiently transfected with Q79-GFP, and six hours later were administered various concentrations of Congo red. Cell viability was assayed 72 hours after transfection, by measuring the level of ATP in each sample. ATP levels in cells expressing Q79 were determined by using the ATPLite™ kit as recommended by the manufacturer (Packard, Inc.). Briefly, cells were transfected with Q79 and treated 6 hours after transfection. Forty-two hours later, the levels of ATP were determined. (FIG. 5C).
(§1) A high-throughput method for identifying compounds that decrease cell toxicity or death has been designed. In this method, cells were seeded at 2×10^5 cells in 100 mm dishes. The next day the plated cells were transiently transfected with a plasmid encoding an expanded polyglutamine repeat, for example, Q79. Three hours later, transfection efficiency was assessed. Plates containing cells having 10-20% transfection efficiency at this 3 hour time point were trypsinized and re-plated at 600 or at 1500 cells per well in 384 well plates with clear bottoms. After 6 hours, the candidate compounds were added to the multi-well plates. The cells were cultured for 48 hours and ATP levels were determined using an ATPLite™ kit. Data was then expressed in either arbitrary units, or as relative ratio of ATP levels in Q79 transfected cells in compound-treated relative to vehicle-treated samples.
Derivatives of Congo red (commercially available from Sigma/Aldrich) were tested for their ability to alter cell toxicity and death by measuring ATP depletion and luciferase expression. The assay was carried out as described above for the high-throughput identification of compounds. Briefly, HeLa cells were transiently transfected with a Q79/GFP plasmid and were subsequently treated with various concentrations of Congo red, or 25 μM of each of Direct Orange 6, Direct Red 1, Direct Orange 1, Direct Black 51, Direct Orange 8, Direct Yellow 26, Direct Yellow 28, or Direct Blue 158. Drug treatment continued for 6 hours and then 48 hours later, ATP levels were measured in these cells and compared to the ATP levels in cells that were transiently transfected with GFP only, and also received the compound.

[4] = tested on: Q79 transiently transfected HeLa cells; experiment: Cell protective effects by ATP depletion tests and luciferase activity analysis; conditions: 5 μM or 25μM of the test compound
Method: as §1
The structures and ChemBridge library product numbers for the compounds that tested positively in the ATP depletion assays and luciferase assays are shown in FIGS. 14A-14L. In addition, derivatives of some of the identified compounds, as shown in FIGS. 14A-14F, were identified and tested for their cell protective effects, as assayed by ATP depletion tests and luciferase activity analysis after administration of Q79 transiently transfected HeLa cells with 5 μM or 25μM of the test compound. […]

SMILES | cell death induced by TNF-α/CHX, Fas/CHX, or H2O2 [1] | general protein degradation [2] | ATP depletion upon expanded polyglutamine expression [3] | cell protective effect (ATP depletion tests and luciferase activity analysis) [4]
COC(=O)C[C@H](NC(=O)[C@H](C)NC(=O)[C@@H](NC(=O)OCc1ccccc1)C(C)C)C(=O)CF [ZVAD, reference compound] (Cbz-Val-Ala-Asp(OMe)-CH2F) | effective in inhibiting both TNF-α- and Fas-induced apoptosis | neither Congo red nor ZVAD had any effect | inhibited | 
CC(=O)Nc1ccc(-c2ccc(NC(C)=O)cc2)cc1 [PQIG] |  |  |  | cytoprotective
C/C(=N\NC(=S)N1CCCCC1)c1ccccc1 [PQIB] |  |  |  | cytoprotective
